Data set [1] deals with T1, chicken BEST1 (bestrophin 1) (Gallus gallus, UniProt A0A8V0ZZU7).
T1 sequence (A0A8V0ZZU7 1-405): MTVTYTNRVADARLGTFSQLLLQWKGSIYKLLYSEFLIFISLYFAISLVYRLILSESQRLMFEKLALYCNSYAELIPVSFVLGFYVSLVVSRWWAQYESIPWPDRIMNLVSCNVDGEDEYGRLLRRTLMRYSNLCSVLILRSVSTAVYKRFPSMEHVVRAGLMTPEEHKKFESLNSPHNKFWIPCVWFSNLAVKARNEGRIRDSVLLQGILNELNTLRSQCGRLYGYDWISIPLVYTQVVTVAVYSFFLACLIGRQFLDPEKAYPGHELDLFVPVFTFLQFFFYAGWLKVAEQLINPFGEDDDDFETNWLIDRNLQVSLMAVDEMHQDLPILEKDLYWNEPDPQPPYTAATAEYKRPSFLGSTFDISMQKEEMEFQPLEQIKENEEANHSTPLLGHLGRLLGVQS
Put plainly: cryo-EM structure with […] GABA. It counts as biochemical.

The data set “cryo-EM structure” deals with the molecule itself. Put plainly: cryo-EM structure.

The EC50 is the concentration needed to bring the measured effect to its halfway point. Read a low EC50 as an effect from little substance. One may read the stoichiometry N as a count of units in the complex or per binding partner.

With `NCCCC(=O)O` [GABA], the EC50 in data set [1] was ~2 mM.

B1: human BEST1 (spanning amino acids 1-398) (domain or fragment, UniProt O76090 1-398, looked up)
chain: MTITYTSQVANARLGSFSRLLLCWRGSIYKLLYGEFLIFLLCYYIIRFIYRLALTEEQQLMFEKLTLYCDSYIQLIPISFVLGFYVTLVVTRWWNQYENLPWPDRLMSLVSGFVEGKDEQGRLLRRTLIRYANLGNVLILRSVSTAVYKRFPSAQHLVQAGFMTPAEHKQLEKLSLPHNMFWVPWVWFANLSMKAWLGGRIRDPILLQSLLNEMNTLRTQCGHLYAYDWISIPLVYTQVVTVAVYSFFLTCLVGRQFLNPAKAYPGHELDLVVPVFTFLQFFFYVGWLKVAEQLINPFGEDDDDFETNWIVDRNLQVSLLAVDEMHQDLPRMEPDMYWNKPEPQPPYTAASAQFRRASFMGSTFNISLNKEEMEFQPNQEDEEDAHAGIIGRFLGLQS
For the molecule B1, in the data set “cryo-EM structure”, the “stoichiometry N” value turned out to be 5.
